From ChEMBL document CHEMBL1133495 (Bioorg Med Chem Lett, 2000)

How the values were obtained:
[1] = biological target: Sodium-dependent noradrenaline transporter (Homo sapiens, UniProt P23975); assay: The compound was tested for inhibition of [3H]norepinephrine uptake in HEK cells by expressing cDNA for human norepinephrine transporter; type: cell-based, HEK293
[2] = biological target: Sodium-dependent serotonin transporter (Homo sapiens, UniProt P31645); assay: The compound was tested for inhibition of [3H]-5-hydroxy tryptamine uptake in HEK cells by expressing cDNA for human […]; type: cell-based, HEK293
Chain of Sodium-dependent serotonin transporter (P31645 whole entry): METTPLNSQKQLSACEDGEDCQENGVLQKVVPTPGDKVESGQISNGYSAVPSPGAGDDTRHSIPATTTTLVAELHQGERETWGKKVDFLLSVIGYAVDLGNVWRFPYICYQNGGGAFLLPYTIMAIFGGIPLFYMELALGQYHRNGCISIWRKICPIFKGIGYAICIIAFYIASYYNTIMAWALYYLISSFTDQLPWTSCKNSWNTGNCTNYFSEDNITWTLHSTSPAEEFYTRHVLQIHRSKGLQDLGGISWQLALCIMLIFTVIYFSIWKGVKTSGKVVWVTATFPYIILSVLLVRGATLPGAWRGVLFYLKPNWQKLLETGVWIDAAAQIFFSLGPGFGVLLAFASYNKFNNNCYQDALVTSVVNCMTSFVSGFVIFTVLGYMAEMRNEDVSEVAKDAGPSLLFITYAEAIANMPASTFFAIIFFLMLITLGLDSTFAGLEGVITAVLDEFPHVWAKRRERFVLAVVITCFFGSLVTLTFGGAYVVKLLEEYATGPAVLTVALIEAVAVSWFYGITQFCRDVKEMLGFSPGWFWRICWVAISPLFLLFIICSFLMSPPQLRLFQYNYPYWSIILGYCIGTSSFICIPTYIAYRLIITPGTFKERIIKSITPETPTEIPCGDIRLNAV

[3] = biological target: Monoamine transporters; serotonin & dopamine (Homo sapiens) (UniProt P31645+Q01959); assay: Ratio of 5-hydroxy tryptamine and dopamine transporter inhibition; type: protein assay
Chain of Monoamine transporters; serotonin & dopamine (Homo sapiens) (P31645 whole entry, looked up): as the sequence (P31645 whole entry) above
Chain of Monoamine transporters; serotonin & dopamine (Homo sapiens) (Q01959 whole entry, looked up): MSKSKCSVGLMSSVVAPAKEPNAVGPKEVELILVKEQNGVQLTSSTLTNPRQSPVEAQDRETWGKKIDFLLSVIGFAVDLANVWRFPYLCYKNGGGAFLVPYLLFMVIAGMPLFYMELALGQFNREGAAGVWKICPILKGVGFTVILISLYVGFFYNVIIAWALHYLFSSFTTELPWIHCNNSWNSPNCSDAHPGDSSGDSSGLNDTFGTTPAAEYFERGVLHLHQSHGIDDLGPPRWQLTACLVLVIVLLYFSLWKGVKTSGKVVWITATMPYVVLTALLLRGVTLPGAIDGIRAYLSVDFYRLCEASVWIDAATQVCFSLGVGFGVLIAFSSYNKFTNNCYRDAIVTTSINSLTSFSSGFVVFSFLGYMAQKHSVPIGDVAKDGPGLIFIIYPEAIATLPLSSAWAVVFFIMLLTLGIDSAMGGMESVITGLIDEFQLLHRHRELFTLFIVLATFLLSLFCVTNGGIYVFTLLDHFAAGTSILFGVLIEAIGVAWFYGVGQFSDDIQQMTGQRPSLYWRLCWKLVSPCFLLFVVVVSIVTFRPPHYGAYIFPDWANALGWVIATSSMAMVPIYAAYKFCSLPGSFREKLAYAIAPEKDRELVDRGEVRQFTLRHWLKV

[4] = biological target: Sodium-dependent dopamine transporter (Homo sapiens, UniProt Q01959); assay: Inhibition of [3H]dopamine uptake in HEK cells expressing human Dopamine transporter; type: cell-based, HEK293
Chain of Sodium-dependent dopamine transporter (Q01959 whole entry): as the sequence (Q01959 whole entry, looked up) above

Chain of Sodium-dependent noradrenaline transporter (P23975 whole entry): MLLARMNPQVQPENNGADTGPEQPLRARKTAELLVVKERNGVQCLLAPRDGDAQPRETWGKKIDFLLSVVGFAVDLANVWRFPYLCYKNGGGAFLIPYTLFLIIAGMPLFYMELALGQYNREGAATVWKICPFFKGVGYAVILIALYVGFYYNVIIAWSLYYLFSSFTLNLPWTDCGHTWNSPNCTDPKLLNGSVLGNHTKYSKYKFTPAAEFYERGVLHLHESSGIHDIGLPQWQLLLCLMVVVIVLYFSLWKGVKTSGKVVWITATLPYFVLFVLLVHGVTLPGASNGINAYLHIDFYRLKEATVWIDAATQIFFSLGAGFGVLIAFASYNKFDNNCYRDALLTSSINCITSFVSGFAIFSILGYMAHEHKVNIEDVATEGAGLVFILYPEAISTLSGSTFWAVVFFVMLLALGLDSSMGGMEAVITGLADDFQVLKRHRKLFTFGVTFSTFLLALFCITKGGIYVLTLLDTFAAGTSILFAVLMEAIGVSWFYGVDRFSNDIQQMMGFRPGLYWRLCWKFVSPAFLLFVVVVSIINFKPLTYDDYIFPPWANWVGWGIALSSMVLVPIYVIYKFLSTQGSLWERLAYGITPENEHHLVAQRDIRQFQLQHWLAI

Structure (SMILES)	IC50 [1] [nM]	IC50 [2] [nM]	Ratio [3]	IC50 [4] [nM]
Cc1ccc([C@H]2C[C@H]3CCC4C2C(=O)CN43)cc1	110	68	0.13	538
CCCC1C2C3CCN2[C@H](C3)C[C@@H]1c1ccc(C)cc1 (stereo partly drawn)	109			570
O=C1CN2C3CC[C@@H]2C[C@H](c2ccc(F)cc2)C13	620	251	0.076	3320
Cc1ccc([C@H]2C[C@H]3CCC4C2[C@@](O)(c2ccccc2)CN43)cc1	11	7.9		
C=C1CN2C3CC[C@@H]2C[C@H](c2ccc(C)cc2)C13	2.2	33	0.49	67
CCC[C@@]1(O)CN2C3CC[C@@H]2C[C@H](c2ccc(C)cc2)C31	18	41	0.11	373
Cc1ccc([C@H]2C[C@H]3CCC4C2[C@](C)(O)CN43)cc1	296	147	0.38	390
Cc1ccc([C@H]2C[C@H]3CCC4C2[C@@](O)(c2ccc(Cl)cc2)CN43)cc1	23	13	0.3	44
